# Source: patent US6777412B2 (priority 1990, dated 2004)
# Where two headings read alike, the source gives them in different places. Marks after values point to notes of the source that are not given here.
# Experiments:
# Assay type in all cases: in vivo
# Venturia inaequalis = test: Foliar fungal disease test on plants: Venturia inaequalis (Vi)
# Procedure, shortened: (§1)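 Potted plants treated by foliar spray to maximum retention (100 ppm a.i. unless stated) plus root drench (~40 ppm a.i. in dry soil), with 0.05% Tween 20 on cereals, one or two days before spore-suspension inoculation.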
# Cercospora arachidicola = test: Foliar fungal disease test on plants: Cercospora arachidicola (Ca); conditions: 100 ppm active ingredient foliar spray plus root drench (approx. 40 ppm a.i. in dry soil), one or two days before inoculation
# Procedure: (§2) The compounds were tested against a variety of foliar fungal diseases of plants. The technique employed was as follows.
# (§3) The plants were grown in John Innes Potting Compost (No.1 or 2) in 4 cm diameter minipots. The test compounds were formulated either by bead milling with aqueous Dispersol T or as a solution in acetone or acetone/ethanol which was diluted to the required concentration immediately before use. For the foliage diseases, the formulations (100 ppm active ingredient except where otherwise indicated) were sprayed onto the foliage and applied to the roots of the plants in the soil. The sprays were applied to maximum retention and the root drenches to a final concentration equivalent to approximately 40 ppm a.i. in dry soil. Tween 20, to give a final concentration of 0.05%, was added when the sprays were applied to cereals.
# (§4) For most of the tests the compound was applied to the soil (roots) and to the foliage (by spraying) one or two days before the plant was inoculated with the disease. An exception was the test on Erysiphe graminis in which the plants were inoculated 24 hours before treatment. Foliar pathogens were applied by spray as spore suspensions onto the leaves of test plants. After inoculation, the plants were put into an appropriate environment to allow infection to proceed and then incubated until the disease was ready for assessment. The period between inoculation and assessment varied from four to fourteen days according to the disease and environment.
# (§5) The disease control vas recorded by the following grading:
# (§6) 3=trace-5% of disease on untreated plants
# (§7) 2=6-25% of disease on untreated plants
# (§8) 1=26-59% of disease on untreated plants
# (§9) 0=60-100% of disease on untreated plants
# Ca Cercospora arachidicola
# Plasmopara viticola = test: Foliar fungal disease test on plants: Plasmopara viticola (Pv)
# Procedure, shortened: as §1
# Puccinia recondita = test: Foliar fungal disease test on plants: Puccinia recondita (Pr)
# Procedure, shortened: as §1
# Erysiphe graminis hordei = test: Foliar fungal disease test on plants: Erysiphe graminis hordei (Egh); conditions: 100 ppm active ingredient foliar spray plus root drench (approx. 40 ppm a.i. in dry soil); plants inoculated 24 hours before treatment
# Pyricularia oryzae = test system: Pyricularia oryzae
# [1] = test system: Phytophthora infestans lycopersici
# [2] = test system: Erysiphe graminis tritici; test: Foliar fungal disease test on plants: Erysiphe graminis tritici (Egt)
# Procedure: as §2, §3, §4, §5, §6, §7, §8, §9
# Egt Erysiphe graminis tritici
# Thanatephorus cucumeris = test: Foliar fungal disease test on plants: Thanatephorus cucumeris (Tc)
# Procedure: as §2, §3, §4, §5, §6, §7, §8, §9
# Tc Thanatephorus cucumeris
# Septoria nodorum = test: Foliar fungal disease test on plants: Septoria nodorum (Sn)
# Procedure: as §2, §3, §4, §5, §6, §7, §8, §9
# [3] = 100 ppm active ingredient foliar spray plus root drench (approx. 40 ppm a.i. in dry soil), one or two days before inoculation
# [4] = 100 ppm active ingredient foliar spray plus root drench (approx. 40 ppm a.i. in dry soil), plants inoculated 24 hours before treatment
compound,measurement,setting,value
CO/C=C(/C(=O)OC)c1ccccc1Oc1cc(Nc2ccccn2)ncn1 [220 of Table I],"disease control grading, Vi (Venturia inaegualis)",Venturia inaequalis; [3],4 (4=no disease)
same,"disease control grading, Ca (Cercospora arachidicola)",Cercospora arachidicola,4 (4=no disease)
same,"disease control grading, Pv (Plasmopara viticola)",Plasmopara viticola; [3],4 (4=no disease)
same,"disease control grading, Pr (Puccinia recondita)",Puccinia recondita; [3],4 (4=no disease)
same,"disease control grading, Egh (Erysiphe graminis hordei)",Erysiphe graminis hordei,4 (4=no disease)
same,"disease control grading, Po (Pyricularia oryzae)",Pyricularia oryzae; [3],4 (4=no disease)
same,"disease control grading, Pil (Phytophthora infestans lycopersici)",[1]; [3],0 (0=60-100% of disease on untreated plants)
CO/C=C(/C(=O)OC)c1ccccc1Oc1cc(-c2ccccc2)ncn1 [180 of Table I],"disease control grading, Vi (Venturia inaegualis)",Venturia inaequalis; [3],4 (4=no disease)
same,"disease control grading, Ca (Cercospora arachidicola)",Cercospora arachidicola,4 (4=no disease)
same,"disease control grading, Pv (Plasmopara viticola)",Plasmopara viticola; [3],4 (4=no disease)
same,"disease control grading, Pr (Puccinia recondita)",Puccinia recondita; [3],4 (4=no disease)
same,"disease control grading, Egh (Erysiphe graminis hordei)",Erysiphe graminis hordei,4 (4=no disease)
CO/C=C(/C(=O)OC)c1ccccc1Oc1cc(OCc2cccs2)ncn1 [394 of Table I],"disease control grading, Egt (Erysiphe graminis tritici)",[2]; [4],4 (4=no disease)
same,"disease control grading, Vi (Venturia inaegualis)",Venturia inaequalis; [3],4 (4=no disease)
same,"disease control grading, Pv (Plasmopara viticola)",Plasmopara viticola; [3],4 (4=no disease)
same,"disease control grading, Pr (Puccinia recondita)",Puccinia recondita; [3],4 (4=no disease)
same,"disease control grading, Tc (Thanatephorus cucumeris)",Thanatephorus cucumeris; [3],4 (4=no disease)
same,"disease control grading, Sn (Septoria nodorum)",Septoria nodorum; [3],4 (4=no disease)
same,"disease control grading, Po (Pyricularia oryzae)",Pyricularia oryzae; [3],3 (3=trace-5% of disease on untreated plants)
same,"disease control grading, Pil (Phytophthora infestans lycopersici)",[1]; [3],4 (4=no disease)
CO/C=C(/C(=O)OC)c1ccccc1Oc1cc(O/N=C(/N)c2cccc(C(F)(F)F)c2)ncn1 [406 of Table I],"disease control grading, Egt (Erysiphe graminis tritici)",[2]; [4],1 (1=26-59% of disease on untreated plants)
same,"disease control grading, Vi (Venturia inaegualis)",Venturia inaequalis; [3],1 (1=26-59% of disease on untreated plants)
same,"disease control grading, Pv (Plasmopara viticola)",Plasmopara viticola; [3],4 (4=no disease)
same,"disease control grading, Pr (Puccinia recondita)",Puccinia recondita; [3],0 (0=60-100% of disease on untreated plants)
same,"disease control grading, Tc (Thanatephorus cucumeris)",Thanatephorus cucumeris; [3],0 (0=60-100% of disease on untreated plants)
same,"disease control grading, Sn (Septoria nodorum)",Septoria nodorum; [3],0 (0=60-100% of disease on untreated plants)
same,"disease control grading, Po (Pyricularia oryzae)",Pyricularia oryzae; [3],0 (0=60-100% of disease on untreated plants)
same,"disease control grading, Pil (Phytophthora infestans lycopersici)",[1]; [3],0 (0=60-100% of disease on untreated plants)
CO/C=C(/C(=O)OC)c1ccccc1Oc1cc(OCc2ccco2)ncn1 [320 of Table I],"disease control grading, Egt (Erysiphe graminis tritici)",[2]; [4],4 (4=no disease)
same,"disease control grading, Vi (Venturia inaegualis)",Venturia inaequalis; [3],4 (4=no disease)
same,"disease control grading, Pv (Plasmopara viticola)",Plasmopara viticola; [3],4 (4=no disease)
same,"disease control grading, Pr (Puccinia recondita)",Puccinia recondita; [3],4 (4=no disease)
same,"disease control grading, Tc (Thanatephorus cucumeris)",Thanatephorus cucumeris; [3],4 (4=no disease)
same,"disease control grading, Sn (Septoria nodorum)",Septoria nodorum; [3],4 (4=no disease)
same,"disease control grading, Po (Pyricularia oryzae)",Pyricularia oryzae; [3],3 (3=trace-5% of disease on untreated plants)
same,"disease control grading, Pil (Phytophthora infestans lycopersici)",[1]; [3],4 (4=no disease)
CO/C=C(/C(=O)OC)c1ccccc1Oc1cc(Nc2ccccc2C#N)ncn1 [377 of Table I],"disease control grading, Vi (Venturia inaegualis)",Venturia inaequalis; [3],4 (4=no disease)
same,"disease control grading, Ca (Cercospora arachidicola)",Cercospora arachidicola,4 (4=no disease)
same,"disease control grading, Pv (Plasmopara viticola)",Plasmopara viticola; [3],4 (4=no disease)
same,"disease control grading, Pr (Puccinia recondita)",Puccinia recondita; [3],4 (4=no disease)
same,"disease control grading, Egh (Erysiphe graminis hordei)",Erysiphe graminis hordei,4 (4=no disease)
same,"disease control grading, Po (Pyricularia oryzae)",Pyricularia oryzae; [3],0 (0=60-100% of disease on untreated plants)
same,"disease control grading, Pil (Phytophthora infestans lycopersici)",[1]; [3],4 (4=no disease)
CO/C=C(/C(=O)OC)c1ccccc1Oc1cc(OCCc2ccc(C#N)cc2)ncn1 [359 of Table I],"disease control grading, Ca (Cercospora arachidicola)",Cercospora arachidicola,4 (4=no disease)
same,"disease control grading, Pv (Plasmopara viticola)",Plasmopara viticola; [3],4 (4=no disease)
same,"disease control grading, Pr (Puccinia recondita)",Puccinia recondita; [3],4 (4=no disease)
same,"disease control grading, Egh (Erysiphe graminis hordei)",Erysiphe graminis hordei,4 (4=no disease)
same,"disease control grading, Pil (Phytophthora infestans lycopersici)",[1]; [3],4 (4=no disease)
CO/C=C(/C(=O)OC)c1ccccc1Oc1cc(Sc2ncccn2)ncn1 [239 of Table I],"disease control grading, Vi (Venturia inaegualis)",Venturia inaequalis; [3],4 (4=no disease)
same,"disease control grading, Ca (Cercospora arachidicola)",Cercospora arachidicola,4 (4=no disease)
same,"disease control grading, Pv (Plasmopara viticola)",Plasmopara viticola; [3],4 (4=no disease)
same,"disease control grading, Pr (Puccinia recondita)",Puccinia recondita; [3],4 (4=no disease)
same,"disease control grading, Egh (Erysiphe graminis hordei)",Erysiphe graminis hordei,4 (4=no disease)
same,"disease control grading, Po (Pyricularia oryzae)",Pyricularia oryzae; [3],3 (3=trace-5% of disease on untreated plants)
same,"disease control grading, Pil (Phytophthora infestans lycopersici)",[1]; [3],4 (4=no disease)
CO/C=C(/C(=O)OC)c1ccccc1Oc1cc(O/N=C(\C)c2ccc[nH]2)ncn1 [407 of Table I],"disease control grading, Egt (Erysiphe graminis tritici)",[2]; 10 ppm foliar application only,1^a (1=26-59% of disease on untreated plants)
same,"disease control grading, Vi (Venturia inaegualis)",Venturia inaequalis; 10 ppm foliar application only,3^a (3=trace-5% of disease on untreated plants)
same,"disease control grading, Pv (Plasmopara viticola)",Plasmopara viticola; 10 ppm foliar application only,4^a (4=no disease)
same,"disease control grading, Pr (Puccinia recondita)",Puccinia recondita; 10 ppm foliar application only,0^a (0=60-100% of disease on untreated plants)
same,"disease control grading, Tc (Thanatephorus cucumeris)",Thanatephorus cucumeris; 10 ppm foliar application only,0^a (0=60-100% of disease on untreated plants)
same,"disease control grading, Sn (Septoria nodorum)",Septoria nodorum; 10 ppm foliar application only,0^a (0=60-100% of disease on untreated plants)
same,"disease control grading, Po (Pyricularia oryzae)",Pyricularia oryzae; 10 ppm foliar application only,1^a (1=26-59% of disease on untreated plants)
same,"disease control grading, Pil (Phytophthora infestans lycopersici)",[1]; 10 ppm foliar application only,0^a (0=60-100% of disease on untreated plants)
CO/C=C(/C(=O)OC)c1ccccc1Oc1cc(OCc2ccccc2)ncn1 [23 of Table I],"disease control grading, Vi (Venturia inaegualis)",Venturia inaequalis; [3],4 (4=no disease)
same,"disease control grading, Ca (Cercospora arachidicola)",Cercospora arachidicola,4 (4=no disease)
same,"disease control grading, Pv (Plasmopara viticola)",Plasmopara viticola; [3],4 (4=no disease)
same,"disease control grading, Pr (Puccinia recondita)",Puccinia recondita; [3],4 (4=no disease)
same,"disease control grading, Egh (Erysiphe graminis hordei)",Erysiphe graminis hordei,4 (4=no disease)
same,"disease control grading, Po (Pyricularia oryzae)",Pyricularia oryzae; [3],4 (4=no disease)
CO/C=C(/C(=O)OC)c1ccccc1Oc1cc(Sc2ccccn2)ncn1 [218 of Table I],"disease control grading, Vi (Venturia inaegualis)",Venturia inaequalis; [3],4 (4=no disease)
same,"disease control grading, Ca (Cercospora arachidicola)",Cercospora arachidicola,4 (4=no disease)
same,"disease control grading, Pv (Plasmopara viticola)",Plasmopara viticola; [3],4 (4=no disease)
same,"disease control grading, Pr (Puccinia recondita)",Puccinia recondita; [3],4 (4=no disease)
same,"disease control grading, Egh (Erysiphe graminis hordei)",Erysiphe graminis hordei,4 (4=no disease)
same,"disease control grading, Po (Pyricularia oryzae)",Pyricularia oryzae; [3],3 (3=trace-5% of disease on untreated plants)
same,"disease control grading, Pil (Phytophthora infestans lycopersici)",[1]; [3],3 (3=trace-5% of disease on untreated plants)
CO/C=C(/C(=O)OC)c1ccccc1Oc1cc(S(=O)(=O)c2ccccn2)ncn1 [356 of Table I],"disease control grading, Vi (Venturia inaegualis)",Venturia inaequalis; [3],4 (4=no disease)
same,"disease control grading, Ca (Cercospora arachidicola)",Cercospora arachidicola,3 (3=trace-5% of disease on untreated plants)
same,"disease control grading, Pv (Plasmopara viticola)",Plasmopara viticola; [3],4 (4=no disease)
same,"disease control grading, Pr (Puccinia recondita)",Puccinia recondita; [3],1 (1=26-59% of disease on untreated plants)
same,"disease control grading, Egh (Erysiphe graminis hordei)",Erysiphe graminis hordei,0 (0=60-100% of disease on untreated plants)
same,"disease control grading, Pil (Phytophthora infestans lycopersici)",[1]; [3],0 (0=60-100% of disease on untreated plants)
CO/C=C(/C(=O)OC)c1ccccc1Oc1cc(OCCSc2ccccc2C#N)ncn1 [393 of Table I],"disease control grading, Vi (Venturia inaegualis)",Venturia inaequalis; [3],0 (0=60-100% of disease on untreated plants)
same,"disease control grading, Pv (Plasmopara viticola)",Plasmopara viticola; [3],4 (4=no disease)
same,"disease control grading, Pr (Puccinia recondita)",Puccinia recondita; [3],4 (4=no disease)
same,"disease control grading, Tc (Thanatephorus cucumeris)",Thanatephorus cucumeris; [3],4 (4=no disease)
same,"disease control grading, Sn (Septoria nodorum)",Septoria nodorum; [3],4 (4=no disease)
same,"disease control grading, Egh (Erysiphe graminis hordei)",Erysiphe graminis hordei,4 (4=no disease)
same,"disease control grading, Po (Pyricularia oryzae)",Pyricularia oryzae; [3],4 (4=no disease)
same,"disease control grading, Pil (Phytophthora infestans lycopersici)",[1]; [3],4 (4=no disease)
